The test system of the assay is broiler chickens. As to the kind of experiment: Effect of iron source and level on hemoglobin, hematocrit, performance and iron bioavailability (slope-ratio) of iron-depleted broiler chicks. Type of assay: in vivo. As to conditions: for Efficiency / Gain / Hematocrit / Intake: from day 7. The protocol: Experiments were conducted to determine the effect of trace mineral level and source on hemoglobin, hematocrit and performance of broiler chickens. Bioavailability of iron was determined by the common-intercept multiple linear regression (slope-ratio) method (S. Aoyagi and D. H. Baker, Nutritional evaluation of a copper-methionine complex for chicks, Poult. Sci. 1993; 72:2309-15). For the first 7 days, chicks were fed a semi-purified diet based on dextrose, corn starch and casein (see Table 1), but with a low level of corn in order to encourage food intake. The calculated iron concentration was 25 ppm and the adaptation period was done in order to deplete iron stores received via the egg.
Beginning on day 7, chicks were provided experimental diets containing the three iron sources added to the basal diet as tabulated below. The three iron sources are commercial grade iron sulphate (FeSO4) (Comparative Example A), siderite (Comparative Example B) and agglomerated particles of starch and crystallites of iron(II) carbonate (Example 1; in accordance with the disclosure) (see Table 2). The agglomerated particles were prepared by grinding siderite to a d90 value below 5 subsequently mixing the ground iron(II) carbonate, starch and water, and spray drying the dispersion. The resulting agglomerated particles have a mean particle size of […]; the content of iron(II) carbonate is 36.94 wt %, based on the total weight of the agglomerated particles.
Birds were raised in Petersime batteries and all metal (feeders, waterers, raised wire floors) in contact with the birds was stainless steel. Water was deionized.
Statistical Analysis: Hemoglobin, hematocrit and performance data were regressed against dietary iron level for each source to obtain linear dose response relationships and bioavailability was calculated from the ratio of the slopes to that of FeSO4. Data (excluding the basal treatment) was also analyzed as a […]×4 level factorial arrangement of treatments. Slope ratios were calculated using the 0, 15, and 25 ppm added levels.

[1] abbreviates: 15 ppm added iron in basal diet.
The mark [2] stands for this setting: 25 ppm added iron in basal diet.

Marks after values point to notes of the source that are not given here.

Regarding `O=S(=O)([O-])[O-].[Fe+2]` [Comparative Example A, iron sulphate (FeSO4)], under setting [1], the Efficiency came out at 0.59 gain/feed, the Gain is listed as 523.9 g/chick, the Hematocrit is on record as 38.3% and the Intake came to 888.2 g/chick. Also, under setting [2], the Efficiency turned out to be 0.62 gain/feed, the Gain was 548.5 g/chick, the Hematocrit worked out at 37.2% and the Intake came out at 884.0 g/chick. Besides, for the setting “across all levels”, the “Efficiency, main effect mean for iron source” value is on record as 0.61 gain/feed; the “Gain, main effect mean for iron source” value is on record as 531.8 g/chick; the “Hematocrit, main effect mean for iron source” value worked out at 37.3%; the “Intake, main effect mean for iron source” value is given as 867.5 ^a g/chick.

These data come from US20200146314A1, “TRACE MINERAL COMPOSITION” (Nutreco IP Assets B.V., priority 2017, published 2020).
